Several values for one entry are separate records, joined by “and”; a condition that tells them apart may be missing. Identical values can stand only once.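 All cell lines were grown in 96-well plates and treated with compound for 48 hours. GI50 marks 50% less growth.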 Activity calls are given as the source filed them. No stated cut-off is given here; in the data, active = GI50 up to about 1.1 µM and inactive = higher. Peptide text beside a SMILES is read from it. * marks the point of attachment. Fmoc = O=C(OCC1c2ccccc2-c2ccccc21)*; Boc = CC(C)(C)OC(=O)*; OtBu = CC(C)(C)O*
Tests used:
Test in all cases: growth of human tumour cells (NCI), 48 h
Malme-3M = test system: Malme-3M
CAKI-1 = test system: CAKI-1
SF-539 = test system: SF-539
UACC-257 = test system: UACC-257
MDA-MB-231 = test system: MDA-MB-231
HOP-92 = test system: HOP-92
MDA-MB-435 = test system: MDA-MB-435
OVCAR-8 = test system: OVCAR-8
Hs-578T = test system: Hs-578T
SNB-75 = test system: SNB-75
SK-OV-3 = test system: SK-OV-3
UO-31 = test system: UO-31
U-251 = test system: U-251
TK-10 = test system: TK-10
BT-549 = test system: BT-549
SK-MEL-5 = test system: SK-MEL-5
OVCAR-4 = test system: OVCAR-4
NCI-H522 = test system: NCI-H522
786-0 = test system: 786-0
NCI-H460 = test system: NCI-H460
DU-145 = test system: DU-145
RXF 393 = test system: RXF 393
M14 = test system: M14
NCI-H23 = test system: NCI-H23
RPMI-8226 = test system: RPMI-8226
PC-3 = test system: PC-3
HCC 2998 = test system: HCC 2998
LOX IMVI = test system: LOX IMVI
A549 = test system: A549
OVCAR-5 = test system: OVCAR-5
SF-268 = test system: SF-268
SNB-19 = test system: SNB-19
OVCAR-3 = test system: OVCAR-3
A498 = test system: A498
SK-MEL-2 = test system: SK-MEL-2
UACC-62 = test system: UACC-62
SK-MEL-28 = test system: SK-MEL-28
T47D = test system: T47D
SN12C = test system: SN12C
HCT-15 = test system: HCT-15
HCT-116 = test system: HCT-116
COLO 205 = test system: COLO 205
IGROV-1 = test system: IGROV-1
SW-620 = test system: SW-620
HT-29 = test system: HT-29
KM12 = test system: KM12
ACHN = test system: ACHN
HOP-62 = test system: HOP-62
EKVX = test system: EKVX
NCI/ADR-RES = test system: NCI/ADR-RES
NCI-H226 = test system: NCI-H226
CCRF-CEM = test system: CCRF-CEM
MOLT-4 = test system: MOLT-4
K562 = test system: K562
SR = test system: SR
MCF7 = test system: MCF7
SF-295 = test system: SF-295
MDA-N = test system: MDA-N
HL-60 = test system: HL-60

Cc1cc(C)c2c(c1)CC1(Cc3ccc(C)c(C)c3C1=O)C2=O (configuration not stated)
GI50 (Malme-3M): 3.56 µM (inactive) | GI50 (CAKI-1): > 100 µM (inactive) | GI50 (SF-539): > 100 µM (inactive) | GI50 (UACC-257): > 100 µM (inactive) | GI50 (MDA-MB-231): 6.24 µM (inactive) | GI50 (HOP-92): > 100 µM (inactive) | GI50 (MDA-MB-435): 2.24 µM (inactive) | GI50 (OVCAR-8): > 100 µM (inactive) | GI50 (Hs-578T): 11.4 µM (inactive) | GI50 (SNB-75): > 100 µM (inactive) | GI50 (SK-OV-3): > 100 µM (inactive) | GI50 (UO-31): > 100 µM (inactive) | GI50 (U-251): 45.2 µM (inactive) | GI50 (TK-10): 49.8 µM (inactive) | GI50 (BT-549): > 100 µM (inactive) | GI50 (SK-MEL-5): > 100 µM (inactive) | GI50 (OVCAR-4): 45.9 µM (inactive) | GI50 (NCI-H522): > 100 µM (inactive) | GI50 (786-0): > 100 µM (inactive) | GI50 (NCI-H460): > 100 µM (inactive) | GI50 (DU-145): > 100 µM (inactive) | GI50 (RXF 393): 15.8 µM (inactive) | GI50 (M14): > 100 µM (inactive) | GI50 (NCI-H23): > 100 µM (inactive) | GI50 (RPMI-8226): > 100 µM (inactive) | GI50 (PC-3): 56.2 µM (inactive) | GI50 (HCC 2998): > 100 µM (inactive) | GI50 (LOX IMVI): > 100 µM (inactive) | GI50 (A549): > 100 µM (inactive) | GI50 (OVCAR-5): > 100 µM (inactive) | GI50 (SF-268): > 100 µM (inactive) | GI50 (SNB-19): > 100 µM (inactive) | GI50 (OVCAR-3): > 100 µM (inactive) | GI50 (A498): > 100 µM (inactive) | GI50 (SK-MEL-2): > 100 µM (inactive) | GI50 (UACC-62): > 100 µM (inactive) | GI50 (SK-MEL-28): > 100 µM (inactive) | GI50 (T47D): > 100 µM (inactive) | GI50 (SN12C): > 100 µM (inactive)

CC(C)(C)c1ccc(O)c(C(O)c2ccncc2)c1 (configuration not stated)
GI50 (Malme-3M): 62.7 µM (inactive) | GI50 (HCT-15): 52.4 µM | GI50 (CAKI-1): > 100 µM (inactive) | GI50 (HCT-116): > 100 µM (inactive) | GI50 (SF-539): > 100 µM (inactive) | GI50 (COLO 205): > 100 µM (inactive) | GI50 (MDA-MB-231): 62.8 µM (inactive) | GI50 (OVCAR-8): > 100 µM (inactive) | GI50 (IGROV-1): > 100 µM (inactive) | GI50 (Hs-578T): 37.7 µM (inactive) | GI50 (SNB-75): 68.7 µM (inactive) | GI50 (UO-31): > 100 µM (inactive) | GI50 (BT-549): > 100 µM (inactive) | GI50 (SW-620): > 100 µM (inactive) | GI50 (SK-MEL-5): 24.1 µM (inactive) | GI50 (HT-29): > 100 µM (inactive) | GI50 (KM12): > 100 µM (inactive) | GI50 (NCI-H522): > 100 µM (inactive) | GI50 (786-0): > 100 µM (inactive) | GI50 (NCI-H460): > 100 µM (inactive) | GI50 (ACHN): 52.4 µM (inactive) | GI50 (DU-145): > 100 µM (inactive) | GI50 (HOP-62): > 100 µM (inactive) | GI50 (RXF 393): 45.4 µM (inactive) | GI50 (NCI-H23): 70.8 µM (inactive) | GI50 (HCC 2998): 39.7 µM (inactive) | GI50 (A549): 83.2 µM (inactive) | GI50 (OVCAR-5): 70.8 µM (inactive) | GI50 (SF-268): > 100 µM (inactive) | GI50 (OVCAR-3): > 100 µM (inactive) | GI50 (EKVX): 44.6 µM (inactive) | GI50 (NCI/ADR-RES): 53 µM (inactive) | GI50 (NCI-H226): 72.1 µM (inactive) | GI50 (CCRF-CEM): > 100 µM (inactive) | GI50 (MOLT-4): 76.4 µM (inactive) | GI50 (SK-MEL-28): > 100 µM (inactive) | GI50 (T47D): 16.9 µM (inactive) | GI50 (K562): 61.4 µM (inactive)

COc1cc2c(c(OC)c1)[C@H](C)N(Cc1ccccc1)C(C)C2 (some centres not stated)
GI50 (Malme-3M): 62.4 µM (inactive) | GI50 (HCT-15): 28.6 µM | GI50 (CAKI-1): 64.9 µM (inactive) | GI50 (HCT-116): 14.7 µM (inactive) | GI50 (SF-539): 16.6 µM (inactive) | GI50 (COLO 205): 29.5 µM (inactive) | GI50 (UACC-257): 67.8 µM (inactive) | GI50 (MDA-MB-231): 36.3 µM (inactive) | GI50 (MDA-MB-435): 16.3 µM (inactive) | GI50 (SR): 25.8 µM (inactive) | GI50 (OVCAR-8): 74.1 µM (inactive) | GI50 (IGROV-1): 29.4 µM (inactive) | GI50 (Hs-578T): 25.5 µM (inactive) | GI50 (SNB-75): 41.1 µM (inactive) | GI50 (SK-OV-3): > 100 µM (inactive) | GI50 (UO-31): 54.2 µM (inactive) | GI50 (MCF7): 42.2 µM (inactive) | GI50 (TK-10): 37.2 µM (inactive) | GI50 (BT-549): 61.8 µM (inactive) | GI50 (SW-620): 28.9 µM (inactive) | GI50 (SK-MEL-5): 25.4 µM (inactive) | GI50 (HT-29): 9.57 µM (inactive) | GI50 (KM12): 30.2 µM (inactive) | GI50 (NCI-H522): > 100 µM (inactive) | GI50 (786-0): 36.1 µM (inactive) | GI50 (NCI-H460): 11 µM (inactive) | GI50 (ACHN): 31.3 µM (inactive) | GI50 (DU-145): > 100 µM (inactive) | GI50 (SF-295): 16.3 µM (inactive) | GI50 (HOP-62): > 100 µM (inactive) | GI50 (M14): 17.7 µM (inactive) | GI50 (NCI-H23): 95.3 µM (inactive) | GI50 (RPMI-8226): 21.3 µM (inactive) | GI50 (PC-3): > 100 µM (inactive) | GI50 (HCC 2998): 33 µM (inactive) | GI50 (LOX IMVI): 30.1 µM (inactive) | GI50 (A549): 43.5 µM (inactive) | GI50 (SF-268): 80.2 µM (inactive) | GI50 (SNB-19): > 100 µM (inactive) | GI50 (A498): > 100 µM (inactive) | GI50 (EKVX): > 100 µM (inactive) | GI50 (NCI-H226): 23.7 µM (inactive) | GI50 (UACC-62): 52.5 µM (inactive) | GI50 (CCRF-CEM): 36.6 µM (inactive) | GI50 (MDA-N): > 10 µM (inactive) | GI50 (MOLT-4): 22.7 µM (inactive) | GI50 (SK-MEL-28): 30.5 µM (inactive) | GI50 (T47D): 45.9 µM (inactive) | GI50 (SN12C): 35.2 µM (inactive) | GI50 (K562): 21.9 µM (inactive) | GI50 (HL-60): 4.88 µM (inactive)

CC(C)(C)OC(=O)CCC(NC(=O)OCC1c2ccccc2-c2ccccc21)C(=O)NC(Cc1c[nH]c2ccccc12)C(=O)NC(CCCCNC(=O)OC(C)(C)C)C(=O)N1CCCC1C(=O)NCC(N)=O (configuration not stated) (Fmoc-E(OtBu)WK(Boc)PG-NH2; configuration not given here)
GI50 (Malme-3M): 19.7 µM (inactive) and 31 µM (inactive) | GI50 (SF-539): 35.6 µM (inactive) and 63.7 µM (inactive) | GI50 (MDA-MB-231): 15.6 µM (inactive) and 12.6 µM (inactive) | GI50 (HOP-92): 18.5 µM (inactive) and 17.6 µM (inactive) | GI50 (SR): 26.5 µM (inactive) and 41.7 µM (inactive) | GI50 (OVCAR-8): 34.6 µM (inactive) and 17.8 µM (inactive) | GI50 (IGROV-1): 31.2 µM (inactive) and 16 µM (inactive) | GI50 (Hs-578T): 17.3 µM (inactive) and 28.4 µM (inactive) | GI50 (SNB-75): 23.3 µM (inactive) and 16 µM (inactive) | GI50 (U-251): 17.3 µM (inactive) and 17.2 µM (inactive) | GI50 (MCF7): 24.9 µM (inactive) and 26.5 µM (inactive) | GI50 (BT-549): 16 µM (inactive) and 19.5 µM (inactive) | GI50 (SK-MEL-5): 32 µM (inactive) and 16.2 µM (inactive) | GI50 (OVCAR-4): 12.9 µM (inactive) and 17.2 µM (inactive) | GI50 (HT-29): > 100 µM (inactive) and 58.3 µM (inactive) | GI50 (NCI-H522): 1.62 µM (inactive) | GI50 (786-0): 20.7 µM (inactive) and 17.5 µM (inactive) | GI50 (NCI-H460): 25.9 µM (inactive) and 16.4 µM (inactive) | GI50 (ACHN): 17.7 µM (inactive) and 16.4 µM (inactive) | GI50 (SF-295): 34.8 µM (inactive) and 26.2 µM (inactive) | GI50 (RXF 393): 22.2 µM (inactive) and 15 µM (inactive) | GI50 (M14): 22.4 µM (inactive) and 39.7 µM (inactive) | GI50 (RPMI-8226): 17.4 µM (inactive) and 34.4 µM (inactive) | GI50 (HCC 2998): 66.7 µM (inactive) and 34.8 µM (inactive) | GI50 (LOX IMVI): 22.5 µM (inactive) and 12.2 µM (inactive) | GI50 (SNB-19): 19.6 µM (inactive) and 26.9 µM (inactive) | GI50 (OVCAR-3): 19.4 µM (inactive) and 16.8 µM (inactive) | GI50 (SK-MEL-2): 18.2 µM (inactive) and 19.7 µM (inactive) | GI50 (UACC-62): 15 µM (inactive) and 17 µM (inactive) | GI50 (MDA-N): 17.8 µM (inactive) and 25.5 µM (inactive) | GI50 (MOLT-4): 28.2 µM (inactive) and 24.4 µM (inactive) | GI50 (SK-MEL-28): 48.1 µM (inactive) and 43.4 µM (inactive) | GI50 (T47D): 63.2 µM (inactive) and 52.5 µM (inactive) | GI50 (K562): 30.1 µM (inactive) and 42.5 µM (inactive)
